Assay results: patent US20250186321A1, “FORMULATION USING AMINO ACID AND CARBOXYLIC ACID, ORGANIC SALT, AND COMPOSITION COMPRISING SAME AND USE THEREOF” (MIYOSHI OIL & FAT CO., LTD., priority 2021, published 2025)

Columns and labels:
[1] = Appearance of formulation (state at 25° C.); format: physicochemical; conditions: 25° C.
Procedure: Formulations 1 to 427 shown in Tables 1A to 1D were prepared by the above-described method using the components (A) and (B) at the compounding molar ratios shown in the tables, and their states at 25° C. were observed.

[2] = Hygroscopicity evaluation (moisture content); format: physicochemical; conditions: for Hygroscopicity test Moisture content after test: dried in vacuum at 60° C. for 18 hours, then 1 month at room temperature, Karl Fischer; for Presence or absence of hydrates / n-hydrate: hygroscopicity test, Table 3
Procedure: The working examples 460 to 470 and the comparative example 6 in Table 3 were completely dried in a vacuum dryer at 60° C. for 18 hours, and then left to stand still at room temperature for 1 month whose moisture contents were then measured using a Karl Fischer moisture meter (CA-200 manufactured by Mitsubishi Chemical Analytech Co., Ltd.) to evaluate their hygroscopicity.

[3] = Appearance of formulation (state at 25° C.); format: physicochemical; conditions: formulation at the compounding molar ratio listed
[4] = Water retention evaluation (moisture reduction rate); format: physicochemical; conditions: for Moisture eduction rate / Moisture content before test (A): 80 wt. % aqueous solution; for Moisture eduction rate: 24 hours at 35° C. and 25% RH, calculated from A and B; for Moisture content before test (A): Karl Fischer; for Presence or absence of hydrates: left until the moisture content remained unchanged, based on final moisture content
Procedure: 80 wt. % aqueous solutions of the formulations (organic salts) of the working examples 428 to 459 and comparative examples 1 to 5 in Tables 2A and 2B were prepared, and the water contents were measured using a Karl Fischer moisture meter (CA-200 manufactured by Mitsubishi Chemical Analytech Co., Ltd.). It was confirmed that the water contents of them were 20.0 wt. % (moisture content before test: A). Each of the 1.0 g samples was added to a screw tube, and left uncovered to stand still for 24 hours in a constant temperature and humidity bath (KCL-2000W manufactured by Tokyo Rikakikai Co., Ltd.) which was set at 35° C. and 25% RH. Moisture contents after being left for 24 hours were measured again (moisture content after test: B) to evaluate their water retention property by using the following formula for calculating the moisture reduction rates. After that, it was left to stand still until the moisture content remained unchanged, and determinations of the hydrate and the number of hydrated water were made based on the final moisture contents. • Moisture content before test: A (%) • Moisture content after test: B (%)

[5] = test system: Escherichia coli; test: Antibacterial property evaluation 1 (minimum inhibitory concentration, broth microdilution); format: cell-based; conditions: broth microdilution method
Text: (§1) The following reagents, etc, were used for minimum inhibitory concentration (MIC) measurement and halo test. • Staphylococcus aureus: strain of NBRC15035, NITE • Escherichia coli: strain of […], NITE • Potassium lactate manufactured by Fujifilm Wako Pure Chemical • Medium of Muller-Hinton broth: Becton, Dickinson and Company • Media for revival of L-dried specimens “DAIGO” manufactured by Fujifilm Wako Pure Chemical • Calcium chloride manufactured by Fuji Film Wako Pure Chemical • Magnesium chloride manufactured by Fuji Film Wako Pure Chemical • Skim milk: Megmilk Snow Brand • Meat extract: from Solabia Biokar Diagnostics • Peptone: from Solabia Biokar Diagnostics • Sodium chloride manufactured by Fuji Film Wako Pure Chemical • Agar manufactured by Fuji Film Wako Pure Chemical
(§2) Working examples 556 to 583 and the comparative example 19 shown in Tables 8A and 8B were subjected to the minimum inhibitory concentration (MIC) test against Escherichia coli and Staphylococcus aureus by the broth microdilution method (as described in the standard method of the Japanese Society of Chemotherapy) to study antibacterial activities of the formulations (organic salt). Formulation (organic salt) concentrations at 250, 200, 150, 100, 50, 25, 12.5, 8, 4, 2, 0.8, 0.4, 0.2, 0.1, 0.05 mg/mL were evaluated, and the MICs are shown in Tables 8A and 8B.

[6] = test system: Staphylococcus aureus; test: as above; format: cell-based; conditions: broth microdilution method
Text: as §1, §2

[7] = Solubility evaluation of polyoxyethylene alkyl ether (AE) in the formulations; format: physicochemical; conditions: polyoxyethylene alkyl ether (Peletex 2465); left at 25° C. for 24 hours, visual
Procedure: Into 20 wt. % aqueous solutions of the formulations (organic salts) shown in Table 10 are dissolved methylparaben (manufactured by Tokyo Kasei, hereinafter, paraben) at 1.0 wt. %, 0.5 wt. % and 0.25 wt. % at 80° C. to prepare the respective antibacterial compositions.
Polyoxyethylene alkyl ether (hereinafter referred to as AE) which is an antiviral substance recognized to be effective against viruses was also subjected to the similar procedure to evaluate the solubility based on the above-mentioned criteria. As the AE, Peletex 2465, manufactured by Miyoshi Oil & Fats Co., Ltd., was used. (Table 10)

[8] = Evaluation on permeability to skin (tape stripping, ascorbyl glucoside); format: in vivo; conditions: scale 1(Slow) to 5(Fast), 10 wt. % aqueous solution with 5 wt. % ascorbyl glucoside, layers 1 to 8, 5 test subjects
Procedure: As for the comparative example 33, ascorbyl glucoside was added so as to be 5% by mass with respect to water to prepare a sample solution. Then, a cotton material impregnated with the prepared 750 μL sample solution was applied to a 1 cm×3 cm area of the inner side of an upper arm for each of the 5 test subjects who have been kept in quiet for 30 minutes under constant temperature and humidity, and allowed to stand still for 5 minutes. After removing the cotton material, a new cotton material was used to remove the sample having been left on the skin surface and then allowed to stand still for 30 minutes. The horns in the first to eighth layers were then harvest from the application site using a Cellotape® (manufactured by Nichiban Co., Ltd.), and all of the layers obtained from the tape were used as samples for assay.
The obtained sample for assay was then extracted with 2 ml of ion-exchange water over the course of 10 min. […] The measured values of the samples for assay that were harvested from the 5 test subjects were averaged, and the averaged value was regarded as the permeation amount (μg/cm^2) to make a comparison of the total permeation amounts for the first to eighth layers. […]

[9] = test system: Staphylococcus aureus; test: Antibacterial property evaluation 2 (halo test 1); format: cell-based; conditions: JISL1902
Text: The following reagents, etc, were used for minimum inhibitory concentration (MIC) measurement and halo test. • Staphylococcus aureus: strain of NBRC15035, NITE • Escherichia coli: strain of […], NITE • Potassium lactate manufactured by Fujifilm Wako Pure Chemical • Medium of Muller-Hinton broth: Becton, Dickinson and Company • Media for revival of L-dried specimens “DAIGO” manufactured by Fujifilm Wako Pure Chemical • Calcium chloride manufactured by Fuji Film Wako Pure Chemical • Magnesium chloride manufactured by Fuji Film Wako Pure Chemical • […] Snow Brand • Meat extract: from Solabia Biokar Diagnostics • Peptone: from Solabia Biokar Diagnostics • Sodium chloride manufactured by Fuji Film Wako Pure Chemical • Agar manufactured by Fuji Film Wako Pure Chemical […]

[10] = test system: Escherichia coli; test: Antibacterial evaluation of antibacterial composition (with paraben); format: cell-based; conditions: 1.0 mg/mL paraben and/or 1.0 mg/mL formulation
Procedure: as §2
(§3) Antibacterial compositions prepared to have the composition having the components (A) and (B) and paraben in an equal amount (working examples 597 to 612, wherein 1.0 mg/mL of paraben and 1.0 mg/mL of the respective working examples 597 to 612 are combined to be 2.0 mg/mL of the composition); the comparative example 27 containing only of water and paraben (at the concentration of 1.0 mg/mL of paraben); and reference example 1 containing L-lysine and citric acid (at the concentration of 1.0 mg/mL) were each subjected to a test performed by a method similar to and as explained in the section of 9-1 based on the presence or absence of the bacterial growth to evaluate the presence or absence of the antibacterial activity.

[11] = test system: Staphylococcus aureus; test: as above; format: cell-based; conditions: 1.0 mg/mL paraben and/or 1.0 mg/mL formulation
Procedure: as §2, §3

[12] = Component (A) amino acid; cited from earlier work
[13] = Adhesiveness evaluation (adhesion rate to filter paper); format: physicochemical; conditions: vacuum dehydration for 8 hours at 60° C.
Procedure: The adhesion rates of the samples were each calculated from the weight change of the filter paper (Table 9). As a blank test, 100 μL of water was dropped on the filter paper, and this filter paper was dried in a vacuum. The change in weight was measured and used as the correction value.

[14] = components (A) and (B) at the compounding molar ratio shown

## CCCCCCCC/C=C\CCCCCCCC(=O)O.NCCCC[C@H](N)C(=O)O [Formulation 7]
[1]; [14]
  state at 25° C.: Solid
[2]
  Hygroscopicity test Moisture content after test: 2.1%
  Presence or absence of hydrates: Present
  n-hydrate: Multihydrate
[3]; Table 3
  state at 25° C.: Solid

## CCCCCCCC/C=C\CCCCCCCC(=O)O.CCCCCCCC/C=C\CCCCCCCC(=O)O.N=C(N)NCCC[C@H](N)C(=O)O [Formulation 70]
[1]; [14]
  state at 25° C.: Liquid
[2]
  Hygroscopicity test Moisture content after test: 9.4%
  Presence or absence of hydrates: Present
  n-hydrate: Multihydrate
[3]; Table 3
  state at 25° C.: Liquid

## N[C@@H](CO)C(=O)O.O=C(O)[C@H](O)[C@@H](O)[C@H](O)[C@H](O)CO [Formulation 243]
[1]; [14]
  state at 25° C.: Liquid
[1]; components (A) and (B) at the compounding molar ratio shown, listed as Working example 243
  state at 25° C.: liquid
[4]
  Moisture eduction rate: 41.6%
  Moisture content before test (A): 20.0%
  Presence or absence of hydrates: Present
[4]; number of hydrated water based on final moisture content
  n-hydrate: Mono-
[3]; Tables 2A/2B
  state at 25° C.: Liquid

## CC(O)C(=O)[O-].[K+] (stereo not shown) [Formulation 428]
[1]
  state at 25° C.: Solid
[4]
  Moisture eduction rate: 87.5%
  Moisture content before test (A): 20.0%
  Presence or absence of hydrates: Absent
[5]
  MIC Escherichia coli: 100 mg/mL
[6]
  MIC Staphylococcus aureus: 150 mg/mL
[3]; Tables 2A/2B
  state at 25° C.: Solid

## CCCC[N+](CCCC)(CCCC)CCCC.[Br-] [Formulation 430]
[1]
  state at 25° C.: Solid
[4]
  Moisture eduction rate: 70.0%
  Moisture content before test (A): 20.0%
  Presence or absence of hydrates: Absent
[7]
  Solubility into 20 wt. % aqueous solution of the formulations: AE: ⊚ (1.0 wt. % or more; no crystal precipitation was observed)
[3]; Tables 2A/2B
  state at 25° C.: Solid

## CCCCn1cc[n+](C)c1.F[B-](F)(F)F [Formulation 431]
[1]
  state at 25° C.: Solid
[4]
  Moisture eduction rate: 71.5%
  Moisture content before test (A): 20.0%
  Presence or absence of hydrates: Absent
[7]
  Solubility into 20 wt. % aqueous solution of the formulations: AE: ⊚ (1.0 wt. % or more; no crystal precipitation was observed)
[3]; Tables 2A/2B
  state at 25° C.: Liquid

## OCC(O)CO [Formulation 432]
[4]
  Moisture eduction rate: 89.7%
  Moisture content before test (A): 20.0%
  Presence or absence of hydrates: Absent
[8]
  Relative infiltration rates of active component (ascorbyl glucoside) into skin: 5
[3]; Tables 2A/2B
  state at 25° C.: Liquid

## CCCCCCCC/C=C\CCCCCCCC(=O)[O-].[Na+] [Formulation 433, reference compound]
[2]
  Hygroscopicity test Moisture content after test: 0.0%
[3]; Table 3
  state at 25° C.: Solid

## CCO [Formulation 436]
[1]
  state at 25° C.: Liquid
[9]; Concentration 10 Wt. % aqueous solution on filter paper
  Halo test 1: Presence or absence of halo: Absent
[9]; Concentration 50 Wt. % aqueous solution on filter paper
  Halo test 1: Presence or absence of halo: Absent

## COC(=O)c1ccc(O)cc1 [compound 27, methylparaben]
[10]
  presence or absence of the antibacterial activity: does not exhibit any antibacterial activity
[11]
  presence or absence of the antibacterial activity: does not exhibit any antibacterial activity

## N[C@@H](CS)C(=O)O [cysteine]
[12]
  isoelectric points of amino acids (values in parentheses): (5.07)

## CCO [ethanol, reference compound]
[9]; Staphylococcus aureus
  presence or absence of halos (halo test 1): no halo was observed
[13]
  adhesion to the filter paper: did not adhere to the filter paper

## CSCC[C@H](N)C(=O)O [methionine]
[12]
  isoelectric points of amino acids (values in parentheses): (5.74)

## N[C@@H](Cc1ccccc1)C(=O)O [phenylalanine]
[12]
  isoelectric points of amino acids (values in parentheses): (5.48)

## O=C(O)[C@@H]1CCCN1 [proline]
[12]
  isoelectric points of amino acids (values in parentheses): (6.30)

## N[C@@H](Cc1c[nH]c2ccccc12)C(=O)O [tryptophan]
[12]
  isoelectric points of amino acids (values in parentheses): (5.89)
